Data reported in PubChem BioAssay (NCI).
“And” between values parts separate entries of the source, which are not always exact repeats. Equal values may be shown once.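 Growth conditions: 96-well plates. Treatment: test compound, 48 hours, 5 concentrations. Analysis: linear interpolation between bracketing concentrations; unreached endpoints set to highest concentration. At the GI50, growth is halved. TGI: total growth inhibition.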

What was measured:
Assay in all cases: growth of human tumour cells (NCI), 48 h
[1] = system: NCI-H23 lung
[2] = system: SNB-75 CNS
[3] = system: SNB-19 CNS
[4] = system: COLO 205 colon
[5] = system: UO-31 renal
[6] = system: OVCAR-5 ovarian
[7] = system: IGROV1 ovarian
[8] = system: DU-145 prostate
[9] = system: UACC-257 melanoma
[10] = system: CAKI-1 renal
[11] = system: RXF 393 renal
[12] = system: MDA-MB-435
[13] = system: HOP-62 NSCLC
[14] = system: NCI-H226 lung
[15] = system: SK-MEL-2 melanoma
[16] = system: 786-0 renal
[17] = system: NCI/ADR-RES ovarian
[18] = system: SN12C renal
[19] = system: HS 578T breast
[20] = system: U251 CNS
[21] = system: SF-539 CNS
[22] = system: EKVX NSCLC
[23] = system: HOP-92 NSCLC
[24] = system: SF-295 CNS
[25] = system: SK-MEL-5 melanoma
[26] = system: HCC-2998 colon
[27] = system: HCT-15 colon
[28] = system: OVCAR-3 ovarian
[29] = system: MOLT-4 leukemia
[30] = system: KM12 colon
[31] = system: SW-620 colon
[32] = system: OVCAR-8 ovarian
[33] = system: ACHN renal
[34] = system: CCRF-CEM leukemia
[35] = system: TK-10 renal
[36] = system: MDA-MB-231 breast
[37] = system: T-47D breast
[38] = system: HCT-116 colon
[39] = system: NCI-H522 lung
[40] = system: MCF7 breast
[41] = system: BT-549 breast
[42] = system: A549 NSCLC
[43] = system: NCI-H460 lung
[44] = system: OVCAR-4 ovarian
[45] = system: M14 melanoma
[46] = system: RPMI-8226 leukemia
[47] = system: UACC-62 melanoma
[48] = system: MALME-3M melanoma
[49] = system: SK-MEL-28 melanoma
[50] = system: SF-268 CNS
[51] = system: A498 renal
[52] = system: HT29 colon
[53] = system: SK-OV-3 ovarian
[54] = system: HL-60(TB) leukemia
[55] = system: K-562 leukemia
[56] = system: PC-3 prostate

Compound: COc1cc2cc(C(=O)N3CC(COS(C)(=O)=O)c4ccc(O)cc43)[nH]c2c(OC)c1OC (stereo not given)
- TGI [1]: 2.86 nM
- TGI [2]: 1.49 nM
- TGI [3]: 12 nM
- TGI [4]: 1.94 nM
- TGI [5]: < 0.1 nM
- TGI [6]: 42.8 nM
- TGI [7]: 37.8 nM
- TGI [8]: 0.845 nM
- TGI [9]: 4.04 nM
- GI50 [10]: < 0.1 nM
- TGI [10]: < 0.1 nM
- TGI [11]: < 0.1 nM
- TGI [12]: 0.212 nM
- TGI [13]: 1.98 nM
- TGI [14]: 0.531 nM
- TGI [15]: < 0.1 nM
- TGI [16]: 10.6 nM
- TGI [17]: 524 nM
- TGI [18]: 16.5 nM
- TGI [19]: 0.872 nM
- TGI [20]: 137 nM
- TGI [21]: < 0.1 nM
- TGI [22]: 6.45 nM
- TGI [23]: 638 nM
- TGI [24]: < 0.1 nM
- TGI [25]: < 0.1 nM
- TGI [26]: < 0.1 nM
- TGI [27]: 0.858 nM
- TGI [28]: 0.616 nM
- TGI [29]: 92.4 nM
- TGI [30]: 3.3 nM
- TGI [31]: 111 nM and 11.8 nM
- TGI [32]: 149 nM
- TGI [33]: < 0.1 nM
- TGI [34]: > 100000 nM
- TGI [35]: 14000 nM
- TGI [36]: 0.328 nM
- TGI [37]: 41.6 nM
- TGI [38]: 138 nM
- TGI [39]: < 0.1 nM
- TGI [40]: 40.2 nM

Compound: c1ccc2c(-c3nc(-c4c[nH]c5ccncc45)cs3)c[nH]c2c1
- GI50 [1]: 1850 nM
- TGI [1]: 5000 nM
- GI50 [2]: 10300 nM
- TGI [2]: 22200 nM
- GI50 [3]: 2180 nM
- TGI [3]: 5120 nM
- GI50 [41]: 8820 nM
- TGI [41]: 21300 nM
- GI50 [5]: 1210 nM
- TGI [5]: 2620 nM
- GI50 [6]: 2590 nM
- TGI [6]: 6630 nM
- GI50 [7]: 1330 nM
- TGI [7]: 3830 nM
- GI50 [8]: 3360 nM
- TGI [8]: 11300 nM
- GI50 [9]: 1800 nM
- TGI [9]: 3430 nM
- GI50 [10]: 1980 nM
- TGI [10]: 5740 nM
- GI50 [11]: 1550 nM
- TGI [11]: 3030 nM
- GI50 [12]: 1750 nM
- TGI [12]: 3230 nM
- GI50 [13]: 1710 nM
- TGI [13]: 4270 nM
- GI50 [14]: 3240 nM
- TGI [14]: 17700 nM
- GI50 [15]: 2090 nM
- TGI [15]: 3950 nM
- GI50 [16]: 1890 nM
- TGI [16]: 3440 nM
- GI50 [17]: 3200 nM
- TGI [17]: 15500 nM
- GI50 [18]: 1670 nM
- TGI [18]: 3350 nM
- GI50 [20]: 1930 nM
- TGI [20]: 3580 nM
- GI50 [42]: 2450 nM
- TGI [42]: 6210 nM
- GI50 [21]: 1790 nM
- TGI [21]: 3290 nM
- GI50 [22]: 1780 nM
- TGI [22]: 4610 nM
- GI50 [43]: 1760 nM
- TGI [43]: 3580 nM
- GI50 [44]: 2960 nM
- TGI [44]: 11700 nM
- GI50 [23]: 1440 nM
- TGI [23]: 3280 nM
- GI50 [45]: 1700 nM
- TGI [45]: 3460 nM
- GI50 [24]: 1580 nM
- TGI [24]: 3200 nM
- GI50 [25]: 1600 nM
- TGI [25]: 2990 nM
- GI50 [26]: 1870 nM
- TGI [26]: 3420 nM
- GI50 [46]: 1250 nM
- TGI [46]: 3040 nM
- GI50 [27]: 1560 nM
- TGI [27]: 3400 nM
- GI50 [28]: 1980 nM
- TGI [28]: 3980 nM
- GI50 [47]: 1670 nM
- TGI [47]: 3330 nM
- GI50 [48]: 1650 nM
- TGI [48]: 3130 nM
- GI50 [49]: 1840 nM
- TGI [49]: 3320 nM
- GI50 [30]: 2020 nM
- TGI [30]: 4400 nM
- GI50 [31]: 1730 nM
- TGI [31]: 3540 nM
- GI50 [50]: 2510 nM
- TGI [50]: 7960 nM
- GI50 [32]: 1970 nM
- TGI [32]: 4330 nM
- GI50 [33]: 1720 nM
- TGI [33]: 3360 nM
- GI50 [34]: 1440 nM
- TGI [34]: 3520 nM
- GI50 [35]: 2760 nM
- TGI [35]: 4740 nM
- GI50 [36]: 1060 nM
- TGI [36]: 2530 nM
- GI50 [51]: 10000 nM
- TGI [51]: 22100 nM
- GI50 [38]: 1710 nM
- TGI [38]: 3190 nM
- GI50 [39]: 1920 nM
- TGI [39]: 3920 nM
- GI50 [52]: 2070 nM
- TGI [52]: 4200 nM
- GI50 [53]: 2620 nM
- TGI [53]: 8290 nM
- GI50 [40]: 1430 nM
- TGI [40]: 3160 nM
- GI50 [54]: 2020 nM
- TGI [54]: 4730 nM
- GI50 [55]: 2050 nM
- TGI [55]: 5290 nM
- GI50 [56]: 1840 nM
- TGI [56]: 6250 nM
